The values that follow come from article PMC6151660 (Molecules : A Journal of Synthetic Chemistry and Natural …, 2017).

Data set [1] deals with Mycobacterium tuberculosis H37Rv. Description: microbe, parasite or virus in culture. The format is cell-based. The note with it: for activity at 1 µM / activity at 50 µM / activity at 100 µM: 120 h.
In data set [2] the test system is M. tuberculosis H37RvMA pMSP12:GFP. Briefly: microbe, parasite or virus in culture. The format is cell-based. The note with it: Mycobacterium tuberculosis.
The target in data set [3] is equine butyrylcholinesterase (BuChE). Details: method as in Joubert et al., 2017 [23]. The note with it: ref Joubert et al., 2017 [23]; cited from earlier work.
For data set [4], the system named is M. tuberculosis H37Rv:pCHERRY3. Description: microbe, parasite or virus in culture. The format is cell-based. As to conditions: Mycobacterium tuberculosis.
The nature of data set [5]: Chinese hamster ovary cell cytotoxicity MTT assay. The note with it: for CC50 at 44 h: CHO cells. As for the experimental part: Cytotoxicity was evaluated on CHO cells utilizing a standard 3-[4,5-dimethylthiazol-2-yl]-2,5-diphenyl tetrazolium bromide (MTT) assay. The MTT is a yellow tetrazolium salt that is reduced to purple formazan in the presence of living cells. This reduction reaction was used to measure growth and chemosensitivity. The test samples were tested in triplicate on one occasion. Cells were seeded in microtiter plates at a density of 10^5 cells/mL and incubated for 24 h prior to exposure. The test samples were prepared to a 20 mg/mL stock solution in 10% methanol or 10% DMSO and were tested as a suspension if not properly dissolved. Test compounds were stored at −20 °C until use, and administered in volumes of 100 µL to the plated cells. Emetine was used as the reference drug in all experiments. […] Plates were developed after 44 h of exposure to the drug by the addition of a solution of MTT. After four hours, further incubation at 37 °C the supernatant was removed from the cells via suction and DMSO was added to each well to dissolve the reduced dye crystals. […] The amount of formazan produced in wells containing untreated cells only and growth medium only represent 100% survival and 0% survival respectively, and the amount in each treatment well was converted to a survival percentage relative to these two extremes. The IC50 values were obtained from full dose-response curves, using a non-linear dose-response curve fitting analysis via GraphPad Prism v.4 software.

A further data set concerns electric eel AChE. The arrangement: method as in Joubert et al., 2017 [23]. As to conditions: ref Joubert et al., 2017 [23]; cited from earlier work.
The nature of data set [6]: SH-SY5Y cytotoxicity MTT assay. The note with it: human, SH-SY5Y neuroblastoma cells, MTT, read-out: CC 50% SH-SY5Y (range where 50% cell toxicity will be observed). The format is cell-based, human. As for the experimental part:
(§1) The human neuroblastoma cell line SH-SY5Y was generously donated by our collaborator at the Division of Molecular Biology and Human Biology, Stellenbosch University, Tygerberg, Cape Town. Cells were cultured in monolayer using Dulbecco Modified Eagles Medium (DMEM, Gibco, Life Technologies Ltd. Carlsbad, CA, USA) supplemented with 10% fetal bovine serum (FBS, Gibco, Life Technologies Ltd.) and 1% 100 U/mL penicillin and 100 μg/mL streptomycin (Lonza Group Ltd., Basel, Switzerland). Cells were grown at 37 °C, in a humidified atmosphere at 5% CO2. Media were replaced every two to three days and cells were sub-cultured by splitting with trypsin (Lonza Group Ltd.).
(§2) The standard MTT assay which measures cell metabolic activity was used to determine cytotoxicity of CM14, CM15 and CM9 as described by Mosmann. Briefly, SH-SY5Y cells were plated in flat bottom 96 well plates in growth medium as stated in Section 3.7.1 at a density of 7500 cells/well. Cells were allowed to adhere to the plate surface for 24 h and used media were replaced with fresh media containing test compounds at 10 µM, 50 µM and 100 µM. Vehicle control cells were treated with DMSO (solvent for dissolving test compounds) at a concentration similar to the amount contained in the highest concentration of test compounds. After 48 h, 10 µL of MTT solution (5 mg/mL) was added to each well and incubated for 4 h and the purple formazan formed was solubilized with 100 µL DMSO and plates were read spectrophotometrically to determine absorbance at 570 nm using a BMG Labtech POLARStar Omega multimodal plate reader.

Data set [7] concerns SH-SY5Y cells. Description: SH-SY5Y cytotoxicity MTT assay. Format: cell-based, human. As to conditions: 48 h. As for the experimental part:
as §1, §2
A general note: Tetrazolium dyes change colour on reduction, which living cells bring about.

For data set [8], the system named is SH-SY5Y cells. Briefly: MPP+-induced cytotoxicity in SH-SY5Y cells (neuroprotection). As to conditions: 1000 μM MPP+ for 48 h.
[9] abbreviates: 1 µM compound, day 5, read-out: % M. tuberculosis Growth, Day 5.
Setting [10] is: 50 µM compound, day 5, read-out: % M. tuberculosis Growth, Day 5.
[11] abbreviates: 100 µM compound, day 5, read-out: % M. tuberculosis Growth, Day 5.
Setting [12] is: read-out: % M. tuberculosis Growth, Day 5.

SMILES strings stand for the structures. pIC50: −log10 of the molar value. Converted amounts (≈) assume the structure as drawn. Like-named read-outs stand apart in the source and are kept apart here.

For the molecule `O=c1ccc2ccc(OCc3ccc(Br)cc3)cc2o1` [CM1], in data set [1] (setting [9]), the activity at 1 µM came out at 96.3%. Besides, the activity at 50 µM in data set [1] (setting [10]) worked out at 79.8%. Also, the activity at 100 µM in [1] (setting [11]) came to 63.6%.

For `Cc1cc(=O)oc2cc(OCc3ccc(Br)cc3)ccc12` [CM2], the activity at 1 µM in [1] (setting [9]) turned out to be 90%. In addition, in [1] (setting [10]), the activity at 50 µM worked out at 40.9%. In addition, the activity at 100 µM in [1] (setting [11]) came out at 33.2%.

On to `Cc1c(Cl)c(=O)oc2cc(OCc3ccc(Br)cc3)ccc12` [CM3], for which, in [1] (setting [9]), the activity at 1 µM was 97.8%. For the same molecule, the activity at 50 µM in data set [1] (setting [10]) stood at 96.1%. Also, in [1] (setting [11]), the activity at 100 µM turned out to be 92.9%.

As to `Cc1c(C#N)c(=O)oc2cc(OCc3ccc(Br)cc3)ccc12` [CM4], the activity at 1 µM in data set [1] (setting [9]) came to 95.3%. Also, in data set [1] (setting [10]), the activity at 50 µM is 44.6%. Besides, the activity at 100 µM in data set [1] (setting [11]) is 33.5%.

Turning to `O=c1cc(C(F)(F)F)c2ccc(OCc3ccc(Br)cc3)cc2o1` [CM5], the activity at 1 µM in [1] (setting [9]) is 107%. Besides, the activity at 50 µM in [1] (setting [10]) was 65%. In addition, the activity at 100 µM in data set [1] (setting [11]) was found to be 56.1%.

In the case of `O=c1ccc2ccc(OCCN3CCC(Cc4ccccc4)CC3)cc2o1` [CM6], in data set [1] (setting [9]), the activity at 1 µM amounted to 98.2%. The activity at 50 µM in data set [1] (setting [10]) was 52.7%. Also, the activity at 100 µM in data set [1] (setting [11]) was 15.4%.

As to `Cc1cc(=O)oc2cc(OCCN3CCC(Cc4ccccc4)CC3)ccc12` [CM7], the activity at 1 µM in data set [1] (setting [9]) stood at 95.1%. Also, the activity at 50 µM in [1] (setting [10]) worked out at 29.5%. Also, the activity at 100 µM in [1] (setting [11]) is 8.18%.

In general, pIC50 refers to −log10 of the IC50, conventionally taken in molar units. For `Cc1c(Cl)c(=O)oc2cc(OCCN3CCC(Cc4ccccc4)CC3)ccc12` [CM8], the activity at 1 µM in data set [1] (setting [9]) worked out at 93.6%. Further, the activity at 50 µM in [1] (setting [10]) turned out to be 5.69%. Moreover, the activity at 100 µM in [1] (setting [11]) turned out to be 4.62%. The results for the MIC90 in [2] and in data set [4] were 19.6 µM (≈ 8.07 µg/mL) and 40.5 µM (≈ 16.7 µg/mL), respectively. The MIC99 came to 25.2 µM (≈ 10.4 µg/mL) in data set [2] and 44.1 µM (≈ 18.2 µg/mL) in data set [4]. In addition, the pIC50 in data set [3] was 5.90; with electric eel AChE it was 4.50. The molecule further showed a CC50 at 44 h in data set [5] of 33 µM.

Consider `Cc1c(C#N)c(=O)oc2cc(OCCN3CCC(Cc4ccccc4)CC3)ccc12` [CM9], for which the CC50 at 48 h in [6] is 10 to 50 µM. Besides, the “effect on viability of SH-SY5Y cells” value is “did not significantly affect” in the data set with SH-SY5Y cells [7] (10 µM); “significantly (p < 0.001) affected” in the data set with SH-SY5Y cells [7] (50 µM and 100 µM). Further, in data set [1] (setting [9]), the activity at 1 µM was 92.8%. Also, the activity at 50 µM in data set [1] (setting [10]) was determined as 7.75%. Moreover, the activity at 100 µM in data set [1] (setting [11]) amounted to 6.19%. Besides, in the data set with SH-SY5Y cells [8] (1 µM compound, untreated control 100%), the “cell survival restored after MPP+ exposure” value is on record as 81.86 ± 3.72%. In addition, in the data set with SH-SY5Y cells [8] (10 µM compound), the “maximal cytoprotection (cell viability) after MPP+ exposure” value stood at 92.2 ± 4.18%. The pIC50 in data set [3] was 5.23; in the data set on electric eel AChE, 5.04.

With `O=c1ccc2ccc(OCCN3CCN(Cc4ccc(Br)cc4)CC3)cc2o1` [CM11], the activity at 1 µM in [1] (setting [9]) worked out at 95.2%. The activity at 50 µM in [1] (setting [10]) was 7.05%. Further, in data set [1] (setting [11]), the activity at 100 µM is 4.46%.

Consider `Cc1cc(=O)oc2cc(OCCN3CCN(Cc4ccc(Br)cc4)CC3)ccc12` [CM12], for which, in data set [1] (setting [9]), the activity at 1 µM was determined as 95.2%. Also, in data set [1] (setting [10]), the activity at 50 µM stood at 4.35%. Further, the activity at 100 µM in data set [1] (setting [11]) came out at 3.93%. For the same molecule, the MIC90 came out at 14 µM (≈ 6.4 µg/mL) in data set [2] and 40.9 µM (≈ 18.7 µg/mL) in data set [4]. For the same molecule, the MIC99 in data set [2] was determined as 29.7 µM (≈ 13.6 µg/mL); in data set [4] it was 50.4 µM (≈ 23.1 µg/mL). Further, the results for the pIC50 (in [3]; in the data set with electric eel AChE) were 5.01 and 4.89, respectively. The molecule further registered a CC50 at 44 h in [5] of 15.5 µM.

For the molecule `Cc1c(Cl)c(=O)oc2cc(OCCN3CCN(Cc4ccc(Br)cc4)CC3)ccc12` [CM13], in data set [1] (setting [9]), the activity at 1 µM turned out to be 97%. In data set [1] (setting [10]), the activity at 50 µM stood at 42.5%. For the same molecule, the activity at 100 µM in data set [1] (setting [11]) came to 32.1%.

Take `O=c1ccc2ccc(OCc3ccccc3)cc2o1` [CM16]: in [1] (setting [12]), the activity at 1 µM is 97.5%, the activity at 50 µM is 72.7% and the activity at 100 µM came to 50.7%.

`Cc1cc(=O)oc2cc(OCc3ccccc3)ccc12` [CM17]: in data set [1] (setting [12]), the activity at 1 µM came to 97.6%, the activity at 50 µM was determined as 28.6% and the activity at 100 µM came to 19.8%.

For the molecule `Cc1c(Cl)c(=O)oc2cc(OCc3ccccc3)ccc12` [CM18], the activity at 1 µM in data set [1] (setting [9]) was determined as 97.3%. The activity at 50 µM in data set [1] (setting [10]) stood at 87.9%. Moreover, in [1] (setting [11]), the activity at 100 µM was found to be 75.5%.

`Cc1c(C#N)c(=O)oc2cc(OCc3ccccc3)ccc12` [CM19]: the activity at 1 µM in [1] (setting [9]) came to 98.3%. For the same molecule, the activity at 50 µM in data set [1] (setting [10]) is 66.9%. The activity at 100 µM in data set [1] (setting [11]) is 55.4%.

Regarding `CC[C@H]1CN2CCc3cc(OC)c(OC)cc3[C@@H]2C[C@@H]1C[C@H]1NCCc2cc(OC)c(OC)cc21` [Emetine, reference compound], the CC50 in data set [5] (Chinese hamster) worked out at 0.06 µM.

Turning to `C[n+]1ccc(-c2ccccc2)cc1` [MPP^+, 1-methyl-4-phenyl pyridinium, reference compound], the “cell viability after MPP+ without test compound” value in the data set on SH-SY5Y cells [8] was 51.42 ± 3.18%.

By inhibition is commonly meant how much of the control response was suppressed. Turning to `CO[C@H]1/C=C/O[C@@]2(C)Oc3c(C)c(O)c4c(O)c(c(/C=N/N5CCN(C)CC5)c(O)c4c3C2=O)NC(=O)/C(C)=C\C=C\[C@H](C)[C@H](O)[C@@H](C)[C@@H](O)[C@@H](C)[C@H](OC(C)=O)[C@@H]1C` [RIF, rifampicin, reference compound], the inhibition at 6 µM in data set [1] (read-out: inhibition of bacterial growth) is 100%. Besides, in data set [2], the MIC stood at 0.0274 µM (≈ 0.0225 µg/mL).
